Assay results taken from ChEMBL document CHEMBL1158405, “Identification of nobiletin, a polymethoxyflavonoid, as an enhancer of adiponectin secretion” (2009).
The source made the active and inactive calls. The calls are words filed in the database; no cut-off is given here.

Legend:
ST-13 [1] = assay: Induction of adiponectin secretion in mouse ST-13 cells after 11 days by ELISA; type: functional, cell-based
ST-13 [2] = assay: Induction of preadipocyte differentiation in mouse ST-13 cells assessed as lipid accumulation at 5 uM within 11 days by oil red-staining relative to control; type: functional, cell-based
ST-13 [3] = assay: Induction of preadipocyte differentiation in mouse ST-13 cells assessed as triglyceride accumulation after 11 days by Fletcher's method; type: functional, cell-based
ST-13 [4] = assay: Induction of adiponectin protein secretion in mouse ST-13 cells assessed as adiponectin mRNA level after 11 days by semi-quantitative RT-PCR; type: functional, cell-based
ST-13 [5] = assay: Induction of adipocyte differentiation in mouse ST-13 cells assessed as stimulation of adipocyte P2 mRNA expression at 0.1 to 30 uM within 11 days by semi-quantitative RT-PCR; type: functional, cell-based
ST-13 [6] = assay: Induction of adipocyte differentiation in mouse ST-13 cells assessed as stimulation of adipsin mRNA expression at 0.1 to 30 uM within 11 days by semi-quantitative RT-PCR; type: functional, cell-based
[7] = Induction of adiponectin secretion in mouse ST-13 cells at 10 uM after 11 days by ELISA relative to control; type: functional
ST-13 [8] = assay: Induction of adipocyte differentiation in mouse ST-13 cells assessed as increase in PPARgamma2 mRNA level after 11 days by semi-quantitative RT-PCR relative to control; type: functional, cell-based
[9] = target: T1, Peroxisome proliferator-activated receptor gamma (Homo sapiens) (UniProt P37231); assay: Agonist activity at Gal4-fused human PPARgamma expressed in african green monkey COS1 cells at 30 uM by luciferase reporter gene assay; type: functional, cell-based; conditions: COS-1
T1 sequence (whole entry): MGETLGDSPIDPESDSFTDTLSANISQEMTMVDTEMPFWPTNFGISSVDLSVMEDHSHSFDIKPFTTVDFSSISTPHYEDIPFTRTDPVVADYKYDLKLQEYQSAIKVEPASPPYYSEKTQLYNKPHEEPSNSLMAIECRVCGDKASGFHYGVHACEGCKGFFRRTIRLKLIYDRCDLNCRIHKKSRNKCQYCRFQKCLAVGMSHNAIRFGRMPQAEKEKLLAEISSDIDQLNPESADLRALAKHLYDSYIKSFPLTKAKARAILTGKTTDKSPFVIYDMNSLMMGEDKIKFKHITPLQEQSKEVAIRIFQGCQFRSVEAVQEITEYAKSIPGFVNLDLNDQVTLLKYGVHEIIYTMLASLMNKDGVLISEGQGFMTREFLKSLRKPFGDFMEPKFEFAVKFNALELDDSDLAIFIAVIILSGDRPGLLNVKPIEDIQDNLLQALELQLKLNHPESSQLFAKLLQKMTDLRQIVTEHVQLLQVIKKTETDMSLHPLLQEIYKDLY

ST-13 [10] = assay: Induction of preadipocyte differentiation in mouse ST-13 cells assessed as lipid accumulation at 10 uM within 11 days by oil red-staining relative to control; type: functional, cell-based

**Q.** With COc1ccc(-c2cc(=O)c3c(OC)cc(OC)c(OC)c3o2)cc1 as the molecule, how does the Activity (ST-13 [1]) read?
**A.** Active

**Q.** For Cc1c(C)c2c(c(C)c1O)CCC(C)(COc1ccc(CC3SC(=O)NC3=O)cc1)O2 (stereo unspecified), which Activity (ST-13 [2]) is on record?
**A.** Active

**Q.** For COc1ccc(-c2cc(=O)c3c(OC)c(OC)c(OC)c(OC)c3o2)cc1OC [NOBILETIN], which Activity (ST-13 [3]) is on record?
**A.** Dose-dependent effect

**Q.** What about the Activity (ST-13 [4]) of the same molecule?
**A.** Dose-dependent effect

**Q.** And the Activity (ST-13 [1])?
**A.** Dose-dependent effect

**Q.** What about the Activity (ST-13 [5]) of the same molecule?
**A.** Active

**Q.** What about the Activity (ST-13 [6]) of the same molecule?
**A.** Active

**Q.** And the Activity [7]?
**A.** 340%

**Q.** What about the Activity (ST-13 [8]) of the same molecule?
**A.** Active

**Q.** What about the Activity [9] of the same molecule?
**A.** inactive

**Q.** What about the Activity (ST-13 [10]) of the same molecule?
**A.** Active
